Test results: ChEMBL document CHEMBL1201862, “PubChem BioAssay data set” (2004)
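How tested: cells in 96-well plates exposed to compound for 48 hours at five concentrations. Here, GI50 denotes the concentration required for 50% inhibition of growth.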 The source made the active and inactive calls. Cut-off read from the data, not from the text of the source: active = GI50 up to about 1.1 µM and inactive = higher.

Assays:
Assay in all cases: DTP human tumour cell line panel, 48 h
[1] = system: 786-0
[2] = system: A498
[3] = system: A549
[4] = system: ACHN
[5] = system: BT-549
[6] = system: CAKI-1
[7] = system: CCRF-CEM
[8] = system: COLO 205
[9] = system: DU-145
[10] = system: EKVX
[11] = system: HCT-116
[12] = system: HCT-15
[13] = system: HL-60
[14] = system: HOP-62
[15] = system: HOP-92
[16] = system: HT-29
[17] = system: Hs-578T
[18] = system: IGROV-1
[19] = system: K562
[20] = system: KM12
[21] = system: LOX IMVI
[22] = system: M14
[23] = system: MCF7
[24] = system: MDA-MB-231
[25] = system: MDA-MB-435
[26] = system: MDA-N
[27] = system: MOLT-4
[28] = system: Malme-3M
[29] = system: NCI-H226
[30] = system: NCI-H23
[31] = system: NCI-H460
[32] = system: NCI-H522
[33] = system: NCI/ADR-RES
[34] = system: OVCAR-4
[35] = system: OVCAR-5
[36] = system: OVCAR-8
[37] = system: PC-3
[38] = system: RXF 393
[39] = system: SF-268
[40] = system: SF-295
[41] = system: SF-539
[42] = system: SK-MEL-28
[43] = system: SK-MEL-2
[44] = system: SK-MEL-5
[45] = system: SK-OV-3
[46] = system: SN12C
[47] = system: SNB-19
[48] = system: SNB-75
[49] = system: SR
[50] = system: SW-620
[51] = system: T47D
[52] = system: TK-10
[53] = system: U-251
[54] = system: UACC-257
[55] = system: UACC-62
[56] = system: UO-31
[57] = system: HCC 2998
[58] = system: OVCAR-3
[59] = system: RPMI-8226

CC(=O)Nc1ccc2c(c1)nc1c3ccccc3ccn21
GI50 [1]: > 100 µM (inactive) | GI50 [2]: > 100 µM (inactive) | GI50 [3]: > 100 µM (inactive) | GI50 [4]: > 100 µM (inactive) | GI50 [5]: > 100 µM (inactive) | GI50 [6]: 96.4 µM (inactive) | GI50 [7]: 27.8 µM (inactive) | GI50 [8]: > 100 µM (inactive) | GI50 [9]: > 100 µM (inactive) | GI50 [10]: > 100 µM (inactive) | GI50 [11]: 55.6 µM (inactive) | GI50 [12]: > 100 µM | GI50 [13]: > 100 µM (inactive) | GI50 [14]: 50.6 µM (inactive) | GI50 [15]: > 100 µM (inactive) | GI50 [16]: > 100 µM (inactive) | GI50 [17]: > 100 µM (inactive) | GI50 [18]: > 100 µM (inactive) | GI50 [19]: 56.1 µM (inactive) | GI50 [20]: 81.1 µM (inactive) | GI50 [21]: > 100 µM (inactive) | GI50 [22]: > 100 µM (inactive) | GI50 [23]: > 100 µM (inactive) | GI50 [24]: > 100 µM (inactive) | GI50 [25]: > 100 µM (inactive) | GI50 [26]: > 100 µM (inactive) | GI50 [27]: > 100 µM (inactive) | GI50 [28]: > 100 µM (inactive) | GI50 [29]: > 100 µM (inactive) | GI50 [30]: > 100 µM (inactive) | GI50 [31]: > 100 µM (inactive) | GI50 [32]: > 100 µM (inactive) | GI50 [33]: > 100 µM (inactive) | GI50 [34]: > 100 µM (inactive) | GI50 [35]: > 100 µM (inactive) | GI50 [36]: > 100 µM (inactive) | GI50 [37]: > 100 µM (inactive) | GI50 [38]: 99.1 µM (inactive) | GI50 [39]: > 100 µM (inactive) | GI50 [40]: 85.9 µM (inactive) | GI50 [41]: > 100 µM (inactive) | GI50 [42]: > 100 µM (inactive) | GI50 [43]: > 100 µM (inactive) | GI50 [44]: > 100 µM (inactive) | GI50 [45]: > 100 µM (inactive) | GI50 [46]: > 100 µM (inactive) | GI50 [47]: > 100 µM (inactive) | GI50 [48]: 71.9 µM (inactive) | GI50 [49]: > 100 µM (inactive) | GI50 [50]: > 100 µM (inactive) | GI50 [51]: > 100 µM (inactive) | GI50 [52]: > 100 µM (inactive) | GI50 [53]: > 100 µM (inactive) | GI50 [54]: > 100 µM (inactive) | GI50 [55]: > 100 µM (inactive) | GI50 [56]: 90.4 µM (inactive)

CC1CNc2ccccc2N=C1NN (stereo unspecified)
GI50 [1]: > 100 µM (inactive) | GI50 [2]: > 100 µM (inactive) | GI50 [3]: > 100 µM (inactive) | GI50 [4]: > 100 µM (inactive) | GI50 [5]: > 100 µM (inactive) | GI50 [6]: > 100 µM (inactive) | GI50 [7]: 22.7 µM (inactive) | GI50 [8]: > 100 µM (inactive) | GI50 [9]: > 100 µM (inactive) | GI50 [10]: > 100 µM (inactive) | GI50 [57]: > 100 µM (inactive) | GI50 [11]: > 100 µM (inactive) | GI50 [12]: > 100 µM | GI50 [14]: > 100 µM (inactive) | GI50 [16]: > 100 µM (inactive) | GI50 [17]: > 100 µM (inactive) | GI50 [18]: > 100 µM (inactive) | GI50 [19]: > 100 µM (inactive) | GI50 [20]: > 100 µM (inactive) | GI50 [21]: > 69.8 µM (inactive) | GI50 [22]: > 100 µM (inactive) | GI50 [23]: > 100 µM (inactive) | GI50 [24]: > 100 µM (inactive) | GI50 [25]: > 100 µM (inactive) | GI50 [26]: > 100 µM (inactive) | GI50 [28]: > 100 µM (inactive) | GI50 [29]: > 100 µM (inactive) | GI50 [30]: > 100 µM (inactive) | GI50 [31]: > 100 µM (inactive) | GI50 [32]: > 100 µM (inactive) | GI50 [33]: > 100 µM (inactive) | GI50 [58]: > 100 µM (inactive) | GI50 [34]: > 100 µM (inactive) | GI50 [35]: > 100 µM (inactive) | GI50 [36]: > 100 µM (inactive) | GI50 [37]: > 100 µM (inactive) | GI50 [59]: > 36.5 µM (inactive) | GI50 [38]: > 100 µM (inactive) | GI50 [39]: > 100 µM (inactive) | GI50 [40]: > 100 µM (inactive) | GI50 [41]: > 100 µM (inactive) | GI50 [42]: > 100 µM (inactive) | GI50 [43]: > 100 µM (inactive) | GI50 [44]: > 100 µM (inactive) | GI50 [45]: > 100 µM (inactive) | GI50 [46]: > 100 µM (inactive) | GI50 [47]: > 100 µM (inactive) | GI50 [49]: > 100 µM (inactive) | GI50 [50]: > 100 µM (inactive) | GI50 [51]: > 100 µM (inactive) | GI50 [52]: > 100 µM (inactive) | GI50 [53]: > 100 µM (inactive) | GI50 [54]: > 100 µM (inactive) | GI50 [55]: > 100 µM (inactive) | GI50 [56]: > 100 µM (inactive)
